Read-outs that look alike come from different tables or passages of the source.
Columns and labels:
HCC1937 cells [1] = assay: Intracellular reactive oxygen species (ROS) measurement (DCFDA); assay type: cell-based, human; conditions: 96 h
Method: Then, ROS production was determined using the DCFDA/H2DCFDA - Cellular ROS Assay Kit (Abcam) following manufacturer's instructions. […] Afterwards, all cell conditions were washed with 100 µL/well of 1X Buffer and then stained with 100 µL/well of 25 µM 2',7' -dichlorofluorescin diacetate (DCFDA) working solution for 45 min at 37 °C in the dark. DCFDA is a fluorogenic dye, deacetylated by cellular esterases to a non-fluorescent compound, eventually oxidized by ROS into the highly fluorescent 2', 7' -dichlorofluorescein (DCF). DCFDA solution was removed and cells were washed once with phenol red-free DMEM with 10 % FBS. They were left for 1 h at 37 °C and fluorescence was measured in a Synergy HTX plate reader (BioTek) at 485/+-20 nm (excitation) and 528/+-20 nm (emission).
After ROS measurement, CCK-8 proliferation assay was performed. Briefly, medium was removed and replenished with 100 µL/well of complete RPMI. 10 µL of CCK-8 reagent were added to each well, and cells were incubated at 37 °C in the dark for 3 h. Absorbance was measured at 450 nm in a NanoQuant Infinite 200 plate reader (Tecan).
Background fluorescence of phenol red-free DMEM with 10 % FBS was subtracted from all ROS fluorescence values, which were then normalized against their respective proliferation absorbance values. Each experimental condition was further normalized against its untreated counterpart. […]

HCC1937 cells [2] = assay: Cell culture under Anoikis-inducing conditions, western blot and imaging; assay type: cell-based, human
Method: Protein extracts were mixed with loading buffer, which consisted of 10 % (v/v) β-mercaptoethanol (Sigma-Aldrich), 10 % SDS, 50 % (v/v) glycerol, 200 mM Tris-HCl pH 6.8 and 0.1 % bromophenol blue (Sigma-Aldrich). They were boiled at 95 °C for 8 min and 20-30 µg protein were loaded into 8, 10 or 15 % acrylamide/bis-acrylamide self-made gels, depending on the molecular weight of the target protein/s to investigate. Gels were run at 80 V for approximately 2 h using a Mini-PROTEAN Tetra electrophoresis system (BioRad), and then transferred to methanol-preactivated polyvinylidene fluoride (PVDF) membranes (Millipore) at 100 V and 4 °C for 1-1.5 h with a Mini Trans-Blot Electrophoretic Transfer Cell (BioRad). Afterwards, membranes with the transferred proteins were stained with ATX Ponceau S red staining solution (Sigma-Aldrich) for 10 min at room temperature, photographed in an Amersham Imager 600 (GE Healthcare) and unstained with distilled water. They were then blocked for 1 h at room temperature with 5 % skim milk (Sigma-Aldrich) diluted in TBST buffer (Tris-buffered saline TBS composed of 20 mM Tris and 150 mM NaCl, supplemented with 0.05 % (v/v) Tween-20, Sigma-Aldrich) with shaking. Next, membranes were incubated overnight at 4 °C with rotation with primary antibodies of interest (see antibody references in Table 3), diluted in 5 % skim milk in TBST. After 4-5 TBST washes (5 min/wash), membranes were incubated for 1 h at room temperature with rotation with secondary antibodies conjugated to horseradish peroxidase (HRP) (see antibody references in Table 3), diluted in 5 % skim milk in TBST. Membranes were rinsed again 4-5 times (5 min/wash) with TBST and the signal was developed with Pierce ECL Western Blotting Substrate (Thermo Fisher Scientific), in either a LAS-3000 Imager (Fujifilm) or an Amersham Imager 600 (GE Healthcare). When necessary, membranes were stripped for 15 min with a pH 2.2 buffer composed of […], 0.5 g SDS and 5 mL Tween20 in 500 mL distilled water. Once stripped, membranes were washed with TBST for 15 min, re-blocked with 5 % skim milk and re-probed with the antibodies of choice. Ponceau staining and western blot images were analysed and their band intensities quantitated with Image J software.
HCC1937 cells were cultured under anchorage-independent growth conditions for 48 h. For this purpose, non-adherent 90 mm polystyrene Petri dishes (Thermo Fisher Scientific) were coated with 10 mg/ml poly-HEMA (Sigma-Aldrich), which makes the dish surface highly repellent to cells, promoting their culture under forced-suspension conditions. […] Images of the cultures were taken at 0 and 48 h, and cell pellets were then collected for western blot analysis.
Anoikis refers to a form of programmed cell death induced by disruption of cell adhesion of normal epithelial cells that detach from the surrounding extracellular matrix. Anoikis resistance has been identified as a hallmark of cancer cells, as survival of normally adherent cells in suspension conditions can enable them to metastasize to distant sites. It has been studied both in the presence and absence of serum; serum deprivation constitutes another way of measuring cell resilience under adverse circumstances, as fetal bovine serum (FBS) contains a variety of growth factors and other elements required for cell survival in culture. When cultured under anchorage-independent/forced suspension conditions for 48 h (Figure 10.C), Cx43_HCC1937 cells formed smaller multicellular aggregates (dashed red lines) than EV_HCC1937, particularly in the absence of FBS.

[3] = test system: cleaved caspase 3, PARP-1; conditions: 50 and 100 µM olaparib
Method: Protein extracts were mixed with loading buffer, which consisted of 10 % (v/v) β-mercaptoethanol (Sigma-Aldrich), 10 % SDS, 50 % (v/v) glycerol, 200 mM Tris-HCl pH 6.8 and 0.1 % bromophenol blue (Sigma-Aldrich). They were boiled at 95 °C for 8 min and 20-30 µg protein were loaded into 8, 10 or 15 % acrylamide/bis-acrylamide self-made gels, depending on the molecular weight of the target protein/s to investigate. Gels were run at 80 V for approximately 2 h using a Mini-PROTEAN Tetra electrophoresis system (BioRad), and then transferred to methanol-preactivated polyvinylidene fluoride (PVDF) membranes (Millipore) at 100 V and 4 °C for 1-1.5 h with a Mini Trans-Blot Electrophoretic Transfer Cell (BioRad). Afterwards, membranes with the transferred proteins were stained with ATX Ponceau S red staining solution (Sigma-Aldrich) for 10 min at room temperature, photographed in an Amersham Imager 600 (GE Healthcare) and unstained with distilled water. They were then blocked for 1 h at room temperature with 5 % skim milk (Sigma-Aldrich) diluted in TBST buffer (Tris-buffered saline TBS composed of 20 mM Tris and 150 mM NaCl, supplemented with 0.05 % (v/v) Tween-20, Sigma-Aldrich) with shaking. […] Ponceau staining and western blot images were analysed and their band intensities quantitated with Image J software.

[4] = Cx43_HCC1937, 50 µM olaparib, 48 h Anoikis-inducing conditions
[5] = EV_HCC1937, 50 µM olaparib, 48 h Anoikis-inducing conditions

Compound: O=C(c1cc(Cc2n[nH]c(=O)c3ccccc23)ccc1F)N1CCN(C(=O)C2CC2)CC1 [Olaparib, olaparib]
- ROS production (HCC1937 cells [1]; Cx43_HCC1937, olaparib 50 and 100 µM): increased
- ROS production (HCC1937 cells [1]; EV_HCC1937, olaparib 50 and 100 µM, dose-dependent): diminished
- cell aggregates in suspension (HCC1937 cells [2]; 50 µM olaparib, 48 h, effect more pronounced in Cx43_HCC1937 than EV): partial disintegration of these clusters
- Total protein PARylation (HCC1937 cells [2]; [4]): decrease
- cleaved caspase 3 levels (HCC1937 cells [2]; [4]): further increased this cleavage
- γH2AX (HCC1937 cells [2]; Cx43_HCC1937, 50 µM olaparib, 48 h Anoikis-inducing conditions, absence of serum): further exacerbated this outcome
- Total protein PARylation (HCC1937 cells [2]; [5]): rise
- cleaved caspase 3 levels (HCC1937 cells [2]; [5]): no significant changes
- PARP-1 cleavage ([3]; Cx43_HCC1937, 96 h): strong PARP-1 cleavage
- PARP-1 cleavage ([3]; EV_HCC1937, 96 h): low cleavage levels

Reference: EP4463162B1, “CONNEXIN 43 FOR USE IN TREATING BRCA1/2-MUTATED CANCER” (Fundación Profesor Novoa Santos, priority 2022, dated 2023)
